From ChEMBL document CHEMBL5120877, “Silybins are stereospecific regulators of the 20S proteasome” (Bioorg Med Chem, 2022)
Calls of active or inactive are those of the source. No cut-off for these calls is given here.

What was measured:
Details in all cases: filed as activator, time 90.0 min
Saccharomyces cerevisiae [1] = assay: Activation of PGPHL-peptidase activity of yeast 20s proteasome using […] as flurogenic substrate preincubated for 30 mins followed by substrate addition and measured after 1 hr by fluorescence assay
Saccharomyces cerevisiae [2] = assay: Activation of trypsin-like activity of yeast 20s proteasome using […] as flurogenic substrate preincubated for 30 mins followed by substrate addition and measured after 1 hr by fluorescence assay
Saccharomyces cerevisiae [3] = assay: Activation of chymotrypsin-like activity of yeast 20s proteasome using suc-LLVY-AMC as flurogenic substrate preincubated for 30 mins followed by substrate addition and measured after 1 hr by fluorescence assay

Row | Activity (Saccharomyces cerevisiae [1]) | Activity (Saccharomyces cerevisiae [2]) | Activity (Saccharomyces cerevisiae [3]) | SMILES
1 | Active | Active | Active | COc1cc([C@H]2Oc3cc([C@H]4Oc5cc(O)cc(O)c5C(=O)[C@@H]4O)ccc3O[C@@H]2CO)ccc1O
2 | Active | Active | Active | COc1cc([C@@H]2Oc3cc([C@H]4Oc5cc(O)cc(O)c5C(=O)[C@@H]4O)ccc3O[C@H]2CO)ccc1O
